Reference: ChEMBL document CHEMBL3286321, “Facile Synthesis and Preliminary Structure-Activity Analysis of New Sulfonamides Against Trypanosoma brucei” (ACS Med Chem Lett, 2014)

Key:
[1] = Selectivity index, ratio of IC50 for HEK293 cells to IC50 for Trypanosoma brucei brucei 427; format: toxicity, cell-based; settings: human, read-out: Ratio IC50
[2] = system: Trypanosoma brucei brucei; test: Trypanocidal activity against logarithmic phase of Trypanosoma brucei brucei 427 assessed as inhibition of parasite viability after 48 hrs by Alamar blue viability assay; format: functional, organism-based; settings: Trypanosoma brucei, 427, 48 h
[3] = system: Trypanosoma brucei brucei; test: Trypanocidal activity against logarithmic phase of Trypanosoma brucei brucei 427 assessed as inhibition of parasite viability at 10 uM after 48 hrs by Alamar blue viability assay; format: functional; settings: Trypanosoma brucei, 427, 48 h

| Structure (SMILES) | selectivity ratio [1] | IC50 [2] [µM] | inhibition at 10 µM [3] [%] |
| --- | --- | --- | --- |
| CCS(=O)(=O)N1CCCc2ccc(NS(=O)(=O)c3cccs3)cc21 | 20.8 | 4 | – |
| CCS(=O)(=O)N1CCCc2ccc(NS(=O)(=O)c3ccccc3F)cc21 | 32 | – | – |
| CCS(=O)(=O)N1CCCc2ccc(NS(=O)(=O)c3ccc(F)cc3)cc21 | 11.8 | 7.8 | – |
| CCS(=O)(=O)N1CCCc2ccc(NS(=O)(=O)c3cccc(F)c3)cc21 | 11.2 | 7.8 | – |
| CCS(=O)(=O)N1CCCc2ccc(NS(=O)(=O)c3c(F)cccc3F)cc21 | – | – | 82 |
| CCS(=O)(=O)N1CCCc2ccc(NS(=O)(=O)c3c(F)c(F)c(F)c(F)c3F)cc21 | – | – | 94 |
| CCS(=O)(=O)N1CCCc2ccc(NS(=O)(=O)c3ccc(Br)cc3F)cc21 | 9 | 9.9 | – |
| CCS(=O)(=O)N1CCCc2ccc(NS(=O)(=O)c3ccc(Br)s3)cc21 | 7.7 | 11.2 | – |
| CCS(=O)(=O)N1CCCc2ccc(NS(=O)(=O)c3ccc(Cl)s3)cc21 | 6.9 | 13.1 | – |
| CCS(=O)(=O)N1CCCc2ccc(NS(=O)(=O)c3ccc(C)cc3)cc21 | 25.8 | 3.4 | – |
| CCS(=O)(=O)Nc1ccc2c(c1)N(S(=O)(=O)CC)CCC2 | – | – | 14 |
| CCS(=O)(=O)N1CCCc2ccc(NS(=O)(=O)CC(F)(F)F)cc21 | – | – | 18 |
| CCCS(=O)(=O)N1CCCc2ccc(NS(=O)(=O)c3ccc(C)cc3)cc21 | 29 | 1.84 | – |
| CCCS(=O)(=O)N1CCCc2ccc(NS(=O)(=O)c3ccc(C(C)C)cc3)cc21 | 8.9 | 1.71 | – |
| CCCS(=O)(=O)N1CCCc2ccc(NS(=O)(=O)c3ccc(-c4ccccc4)cc3)cc21 | 16.6 | 5.7 | – |
| CCCS(=O)(=O)N1CCCc2ccc(NS(=O)(=O)c3ccccc3F)cc21 | 24.3 | 3.5 | – |
| CCCS(=O)(=O)N1CCCc2ccc(NS(=O)(=O)c3cccs3)cc21 | – | – | < 10 |
| CCCS(=O)(=O)N1CCCc2ccc(NS(=O)(=O)c3ccccc3C)cc21 | – | – | 11 |
| CCCS(=O)(=O)N1CCCc2ccc(NS(=O)(=O)c3cccc(C)c3)cc21 | – | – | < 10 |
| CCCS(=O)(=O)N1CCCc2ccc(NS(=O)(=O)c3ccc(C)cc3C)cc21 | 10.4 | 9 | – |
| CCCS(=O)(=O)N1CCCc2ccc(NS(=O)(=O)c3cc(C)cc(C)c3)cc21 | – | – | < 10 |
| CCCS(=O)(=O)N1CCCc2ccc(NS(=O)(=O)c3c(C)c(C)c(C)c(C)c3C)cc21 | 11.4 | 7.9 | – |
| O=S(=O)(Nc1ccc2c(c1)N(S(=O)(=O)c1cccs1)CCC2)c1cccs1 | – | – | 35 |
| Cc1ccc(S(=O)(=O)Nc2ccc3c(c2)N(S(=O)(=O)c2cccs2)CCC3)cc1 | 2.5 | 3.1 | – |
| Cc1ccc(S(=O)(=O)N2CCCc3ccc(NS(=O)(=O)c4cccs4)cc32)cc1 | 1.7 | 7.9 | – |
| Cc1ccc(S(=O)(=O)Nc2ccc3c(c2)N(S(=O)(=O)c2ccc(C)cc2)CCC3)cc1 | 1.8 | 3.9 | – |
